The source of these data is article PMC3179492, “HIV Protease Inhibitors Act as Competitive Inhibitors of the Cytoplasmic Glucose Binding Site of GLUTs with Differing Affinities for GLUT1 and GLUT4” (PLoS ONE, 2011).

Assay [1] addresses T1, GLUT4 (Mus musculus, UniProt P14142).
T1 sequence (P14142 1-509): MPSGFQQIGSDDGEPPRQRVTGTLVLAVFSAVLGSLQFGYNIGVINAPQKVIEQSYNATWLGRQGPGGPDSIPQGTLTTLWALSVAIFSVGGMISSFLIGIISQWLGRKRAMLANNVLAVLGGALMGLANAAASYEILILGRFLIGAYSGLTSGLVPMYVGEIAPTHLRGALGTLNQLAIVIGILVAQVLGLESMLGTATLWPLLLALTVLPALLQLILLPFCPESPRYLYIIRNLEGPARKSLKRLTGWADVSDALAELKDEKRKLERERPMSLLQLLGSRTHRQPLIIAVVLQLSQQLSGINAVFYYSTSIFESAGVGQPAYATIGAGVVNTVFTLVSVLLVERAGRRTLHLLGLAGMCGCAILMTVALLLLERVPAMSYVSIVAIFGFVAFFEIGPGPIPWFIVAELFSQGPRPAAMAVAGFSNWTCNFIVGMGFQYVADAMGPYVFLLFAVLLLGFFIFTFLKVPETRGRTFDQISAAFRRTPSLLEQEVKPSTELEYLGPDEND
The experiment in a line: Kinetic (Scatchard) analysis of indinavir effect on ATB-BMPA labeling of GLUT4 in LDM. The format is binding. Also on record: LDM contains small intracellular vesicles of GLUT4 and GLUT1; endogenous in cells; host or cells: low-density microsome fraction of differentiated 3T3-L1 adipocytes. The note with it: from Kd(apparent) = Kd (1 + [I]/KI), LDM 50 µg; read-out: KI, competitive inhibition of ATB-BMPA binding to the cytoplasmic glucose binding site of GLUT4. The procedure:
ATB-BMPA (50, 100, 200, 300 µM final concentration) was then added for an additional 10 min (5 min at room temperature, 5 min at 4 °C). Samples (110 µl final volume) were UV irradiated as described above. After removal of excess label with a desalting spin column, GLUT4 protein was immunoprecipitated from Thesit-solubilized LDM using a GLUT4 C-terminal directed antibody. ATB-BMPA-bound GLUT4 was analyzed by immunoblot analysis using an IR Dye 800 CW fluorescent streptavidin (LI-COR) and quantified with an Odyssey Infrared Imaging System. Identical samples that were not UV irradiated were used to correct for non-specific binding. The free ATB-BMPA concentration was assumed to be equal to the total ATB-BMPA concentration since the label concentration far exceeded the GLUT4 concentration. The data was expressed as Scatchard plots, bound/free versus bound. The Bmax and Kd values were determined from the horizontal intercept and the negative […], respectively.

In a further assay the test system is 3T3-L1 fibroblasts. Nature of the assay: 2-Deoxyglucose uptake in 3T3-L1 fibroblasts (express only GLUT1). The note with it: for Effect on 2-deoxyglucose uptake (GLUT1 transporter activity): 3T3-L1 fibroblasts. The format is cell-based. The procedure: 3T3-L1 fibroblasts were grown to confluency in Dulbecco's modified Eagle's medium (DMEM) supplemented with 10% calf serum. The uptake of [^3H]2-Deoxyglucose (50 µM) was measured in Krebs-Ringer phosphate buffer for 6 min at 37°C as previously described. HIV protease inhibitors were added 6 min prior to the start of the reaction. Non-specific uptake measured in the presence of 20 µM cytochalasin B (Sigma) was subtracted from the experimental values.

For assay [2], the target named is T1, GLUT4. The following applies: Xenopus oocytes; read-out: Binding affinity (KI) for GLUT4 in the oocyte system; cited from earlier work.

Structures are written as SMILES. Like-named read-outs stand apart in the source and are kept apart here.

`CC(C)(C)NC(=O)[C@@H]1CN(Cc2cccnc2)CCN1C[C@@H](O)C[C@@H](Cc1ccccc1)C(=O)N[C@H]1c2ccccc2C[C@H]1O` [Indinavir, indinavir]: the Ki on GLUT4 [1] is 8.2 µM; on GLUT4 [2], 50 µM. The entries for the “Effect on 2-deoxyglucose uptake (GLUT1 transporter activity)” value with 3T3-L1 fibroblasts (10 µM PI) and in the assay with 3T3-L1 fibroblasts (50 µM PI) were “unaffected” and “affected but a lesser extent than GLUT4”, respectively. For the same compound, the IC50 in the assay with 3T3-L1 fibroblasts (Mus musculus, 3T3-L1, basal, 50 µM 2-deoxyglucose, read-out: IC50 for inhibition of 2-deoxyglucose uptake in 3T3-L1 fibroblasts) stood at 241 µM.

What is called IC50 is the concentration that inhibits the measured activity by half.
